ChEMBL document CHEMBL1201862, “PubChem BioAssay data set” (2004)
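96-well plates; 48 h exposure; 5 concentrations. Endpoints by linear interpolation between flanking doses. Not reached: highest tested concentration assigned. The concentration for 50% growth inhibition is given as GI50.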 Activity calls are given as the source filed them. Rule as the data show it: active = GI50 up to about 1.1 µM and inactive = higher.

Legend:
Assay in all cases: inhibition of tumour cell growth, NCI panel, 48 h
[1] = tested on: HT-29
[2] = tested on: HCT-116
[3] = tested on: SNB-75
[4] = tested on: MDA-N
[5] = tested on: OVCAR-5
[6] = tested on: OVCAR-4
[7] = tested on: CCRF-CEM
[8] = tested on: DU-145
[9] = tested on: CAKI-1
[10] = tested on: HL-60
[11] = tested on: UACC-62
[12] = tested on: SF-539
[13] = tested on: OVCAR-8
[14] = tested on: NCI-H23
[15] = tested on: SK-MEL-2
[16] = tested on: SK-MEL-28
[17] = tested on: SF-295
[18] = tested on: EKVX
[19] = tested on: HOP-92
[20] = tested on: SR

| SMILES | GI50 [1] | GI50 [2] | GI50 [3] | GI50 [4] | GI50 [5] | GI50 [6] | GI50 [7] | GI50 [8] | GI50 [9] | GI50 [10] | GI50 [11] | GI50 [12] | GI50 [13] | GI50 [14] | GI50 [15] | GI50 [16] | GI50 [17] | GI50 [18] | GI50 [19] | GI50 [20] |
| --- | --- | --- | --- | --- | --- | --- | --- | --- | --- | --- | --- | --- | --- | --- | --- | --- | --- | --- | --- | --- |
| CCC(=O)Nc1ccc(NC(C#N)c2cccc(Oc3ccccc3)c2)cc1 (stereo not given) | 33.8 µM (inactive) | 34.5 µM (inactive) | 42 µM (inactive) | 34.4 µM (inactive) | > 100 µM (inactive) | 54.1 µM (inactive) | 32.1 µM (inactive) | 48.3 µM (inactive) | 54.6 µM (inactive) | 13.5 µM (inactive) | 52 µM (inactive) | 32.9 µM (inactive) | 26.2 µM (inactive) | 45.2 µM (inactive) | 35 µM (inactive) | 53.3 µM (inactive) | 45.7 µM (inactive) | 67.6 µM (inactive) | 34.8 µM (inactive) | 18.2 µM (inactive) |
| CN1CCN(CCCCN2c3ccccc3Sc3ccc(N=[N+]=[N-])cc32)CC1 | 2.07 µM (inactive) | 3.72 µM (inactive) | 4.55 µM (inactive) | 2.88 µM (inactive) | 9.55 µM (inactive) | 10.2 µM (inactive) | 2.6 µM (inactive) | 12.9 µM (inactive) | 7.29 µM (inactive) | 1.95 µM (inactive) | 2.08 µM (inactive) | 7.35 µM (inactive) | 13.5 µM (inactive) | 17.8 µM (inactive) | 3.99 µM (inactive) | 1.84 µM (inactive) | 12.2 µM (inactive) | 13.6 µM (inactive) | 2.75 µM (inactive) | 2.58 µM (inactive) |
| CCOC(=O)c1oc2ccc([N+](=O)[O-])c3c2c1CCC3 | > 100 µM (inactive) | 51.1 µM (inactive) | 14 µM (inactive) | > 100 µM (inactive) | > 92 µM (inactive) | > 100 µM (inactive) | > 95.1 µM (inactive) | > 100 µM (inactive) | 61.4 µM (inactive) | > 93.8 µM (inactive) | 13.8 µM (inactive) | 19 µM (inactive) | 82.4 µM (inactive) | 61.4 µM (inactive) | 47.1 µM (inactive) | > 82.4 µM (inactive) | 23.9 µM (inactive) | 73.6 µM (inactive) | 17.4 µM (inactive) | > 100 µM (inactive) |
| Nc1ncnc2c1ncn2CCCNO | > 100 µM (inactive) | > 100 µM (inactive) | > 100 µM (inactive) | > 100 µM (inactive) | > 100 µM (inactive) | > 100 µM (inactive) | > 100 µM (inactive) | > 100 µM (inactive) | > 100 µM (inactive) | > 100 µM (inactive) | > 100 µM (inactive) | > 100 µM (inactive) | > 100 µM (inactive) | > 100 µM (inactive) | > 100 µM (inactive) | > 100 µM (inactive) | > 100 µM (inactive) | > 100 µM (inactive) | > 100 µM (inactive) | > 100 µM (inactive) |
| COc1ccc(-c2nc3ccc(C)cc3o2)c(OC)c1 | 5.28 µM (inactive) | 17.9 µM (inactive) | 16.7 µM (inactive) | 23.9 µM (inactive) | 14.9 µM (inactive) | 26.9 µM (inactive) | 24.1 µM (inactive) | 25.8 µM (inactive) | 29.8 µM (inactive) | 20.4 µM (inactive) | 23.5 µM (inactive) | 20 µM (inactive) | 26.4 µM (inactive) | 27.8 µM (inactive) | 24.6 µM (inactive) | 55.7 µM (inactive) | 19.9 µM (inactive) | 19.6 µM (inactive) | 25.4 µM (inactive) | 14.3 µM (inactive) |
| CN(C)CCCSc1nc2c(c(=N)n1-c1ccccc1)c(=S)n(-c1ccccc1)c(=S)n2-c1ccccc1 | 2.17 µM (inactive) | 1.98 µM (inactive) | 1.63 µM (inactive) | 1.71 µM (inactive) | 11.3 µM (inactive) | 1.79 µM (inactive) | 0.43 µM (active) | 1.67 µM (inactive) | 1.77 µM (inactive) | 0.798 µM (active) | 1.78 µM (inactive) | 2.52 µM (inactive) | 1.77 µM (inactive) | 2.07 µM (inactive) | 2.12 µM (inactive) | 2.04 µM (inactive) | 5.21 µM (inactive) | 1.91 µM (inactive) | 1.8 µM (inactive) | 0.237 µM (active) |
| CN1C(=O)C23CC4=CC=CC(O)C4N2C(=O)C1(CO)SS3 (stereo not given) | 0.0188 µM (active) | 0.107 µM (active) | 0.21 µM (active) | 0.188 µM (active) | 0.0526 µM (active) | 0.223 µM (active) | 0.0205 µM (active) | 0.157 µM (active) | 0.308 µM (active) | 0.0223 µM (active) | 0.179 µM (active) | 0.0204 µM (active) | 0.0611 µM (active) | 0.167 µM (active) | 0.22 µM (active) | 0.507 µM (active) | 0.181 µM (active) | 0.368 µM (active) | 0.165 µM (active) | 0.0291 µM (active) |
| Cc1ccc(C(=O)Oc2ccc(/C=C3\CCC/C(=C\c4ccc(OC(=O)c5ccc(C)cc5)cc4)C3=O)cc2)cc1 | > 100 µM (inactive) | > 100 µM (inactive) | 79.8 µM (inactive) | > 100 µM (inactive) | > 100 µM (inactive) | > 100 µM (inactive) | > 100 µM (inactive) | > 100 µM (inactive) | > 100 µM (inactive) | > 100 µM (inactive) | > 100 µM (inactive) | > 100 µM (inactive) | > 100 µM (inactive) | > 100 µM (inactive) | > 100 µM (inactive) | > 100 µM (inactive) | > 100 µM (inactive) | > 100 µM (inactive) | > 100 µM (inactive) | > 100 µM (inactive) |
| C=C1C(=O)O[C@@H]2C[C@@H](C)[C@@H]3C=CC(=O)[C@@]3(C)[C@@H](OC(=O)CC(=O)O[C@H]3[C@@H]4C(=C)C(=O)O[C@@H]4C[C@@H](C)[C@@H]4C=CC(=O)[C@]43C)[C@H]12 | 0.0342 µM (active) | 0.0143 µM (active) | 0.136 µM (active) | 0.0755 µM (active) | 0.178 µM (active) | 0.0468 µM (active) | < 0.01 µM (active) | 2.56 µM (inactive) | 0.0238 µM (active) | < 0.01 µM (active) | 0.0306 µM (active) | 0.0252 µM (active) | 0.0299 µM (active) | 0.0345 µM (active) | 0.0893 µM (active) | 0.0398 µM (active) | 0.115 µM (active) | 0.0811 µM (active) | 0.0296 µM (active) | 0.0103 µM (active) |
| O=C(NCCN1CCCC1)c1cn2c(ccc3sc4ccccc4c(=O)c32)n1 | 3.18 µM (inactive) | 4.02 µM (inactive) | 19.1 µM (inactive) | 16.2 µM (inactive) | 11.9 µM (inactive) | 12.3 µM (inactive) | 1.22 µM (inactive) | 13.2 µM (inactive) | 11.4 µM (inactive) | 5.61 µM (inactive) | 17.1 µM (inactive) | 14.9 µM (inactive) | 4.95 µM (inactive) | 14.6 µM (inactive) | 19.2 µM (inactive) | 16.6 µM (inactive) | 13.8 µM (inactive) | 15.6 µM (inactive) | 15.2 µM (inactive) | 1.17 µM (inactive) |
| O=C(Nc1ccc(Cl)c(Cl)c1)N1N=C2c3ccccc3CCC2C1c1ccc(Cl)cc1 (stereo not given) | > 100 µM (inactive) | > 100 µM (inactive) | > 100 µM (inactive) | > 100 µM (inactive) | > 100 µM (inactive) | > 100 µM (inactive) | > 100 µM (inactive) | > 100 µM (inactive) | > 100 µM (inactive) | > 100 µM (inactive) | > 100 µM (inactive) | > 100 µM (inactive) | > 100 µM (inactive) | > 100 µM (inactive) | > 100 µM (inactive) | > 100 µM (inactive) | > 100 µM (inactive) | > 100 µM (inactive) | > 100 µM (inactive) | > 100 µM (inactive) |
| COC(=O)C[C@H](CCSC)NC(=O)C[C@H](CCSC)NC(=O)C[C@H](CCSC)NC(=O)OC(C)(C)C | > 100 µM (inactive) | 37.1 µM (inactive) | 13.4 µM (inactive) | 48.3 µM (inactive) | > 100 µM (inactive) | 20.3 µM (inactive) | 67.1 µM (inactive) | 87.3 µM (inactive) | > 100 µM (inactive) | 1.44 µM (inactive) | 27.9 µM (inactive) | 17.5 µM (inactive) | 28.7 µM (inactive) | 47.2 µM (inactive) | 24.2 µM (inactive) | > 100 µM (inactive) | 21.8 µM (inactive) | 34.8 µM (inactive) | 16.3 µM (inactive) | 39.6 µM (inactive) |
| NC(=O)SCC(=O)Nc1ccc2cccc3c2c1CC3 | 29.7 µM (inactive) | 15.5 µM (inactive) | 96.6 µM (inactive) | 21.8 µM (inactive) | 17.7 µM (inactive) | 17.3 µM (inactive) | 8.02 µM (inactive) | > 100 µM (inactive) | 42.1 µM (inactive) | 3.9 µM (inactive) | 13.7 µM (inactive) | 15.1 µM (inactive) | 63.4 µM (inactive) | 23.7 µM (inactive) | 17.1 µM (inactive) | > 10 µM (inactive) | 21.1 µM (inactive) | > 100 µM (inactive) | 0.596 µM (active) | 8.71 µM (inactive) |
| COC(=O)c1ccc(OCc2ccc3nc(-c4ccccc4)c(Cl)nc3c2)cc1 | > 100 µM (inactive) | 83 µM (inactive) | 22.9 µM (inactive) | > 100 µM (inactive) | > 100 µM (inactive) | 62.1 µM (inactive) | > 100 µM (inactive) | > 100 µM (inactive) | 28.6 µM (inactive) | 40.6 µM (inactive) | > 100 µM (inactive) | 33.1 µM (inactive) | 48 µM (inactive) | 47.2 µM (inactive) | 84.7 µM (inactive) | > 100 µM (inactive) | 46 µM (inactive) | > 100 µM (inactive) | 28.1 µM (inactive) | > 100 µM (inactive) |
